According to patent US8912121B2, “Herbicidal compositions comprising 4-amino-3-chloro-5-fluoro-6-(4-chloro-2-fluoro-3-methoxyphenyl)pyridine-2-carboxylic acid or a derivative thereof and certain PS II inhibitors” (Dow Agrosciences LLC, priority 2012, dated 2014):
Several values for one entry are separate records, joined by “and”; a condition that tells them apart may be missing. Equal values may be shown once.

Assays:
Assay in all cases: Postemergence foliar-applied mixtures, direct seeded rice, greenhouse
[1] = test system: ECHCO (Echinochloa colona, junglerice); format: in vivo, Echinochloa colona (L.) Link
From the text: (§1) Seeds or nutlets of the desired test plant species were planted in a soil matrix prepared by mixing a loam or sandy loam soil (e.g., 28.6 percent silt, 18.8 percent clay, and 52.6 percent sand, with a pH of about 5.8 and an organic matter content of about 1.8 percent) and calcareous grit in an 80 to 20 ratio. The soil matrix was contained in plastic pots with a volume of 1 quart and a surface area of 83.6 square centimeters (cm^2). When required to ensure good germination and healthy plants, a fungicide treatment and/or other chemical or physical treatment was applied. The plants were grown for 8-22 days in a greenhouse with an approximate 14 h photoperiod which was maintained at about 29° C. during the day and 26° C. during the night. Nutrients (Peters Excel® 15-5-15 5-Ca 2-Mg and iron chelate) were applied in the irrigation solution as needed and water was added on a regular basis. Supplemental lighting was provided with overhead metal halide 1000-Watt lamps as necessary. The plants were employed for testing when they reached the first through fourth true leaf stage.
(§2) Treatments consisted of the acid or esters of 4-amino-3-chloro-5-fluoro-6-(4-chloro-2-fluoro-3-methoxy-phenyl) pyridine-2-carboxylic acid (Compound A), each formulated as an SC (suspension concentrate), and various herbicidal components alone and in combination. Forms of compound A were applied on an acid equivalent basis.
(§3) Other herbicidal components were applied on an active ingredient basis and included Photosystem II (PSII)-inhibiting herbicides propanil formulated as Stam® M4 EC, bentazon-sodium formulated as Basagran®, atrazine formulated as Atrazine 90 WDG, bromoxynil octanoate ester formulated as Buctril®, simetryne (technical grade material), simazine formulated as Princep® Caliber 90, ioxynil (technical grade material), cyanazine (technical grade material), and hexazinone (technical grade material).
(§4) Treatment requirements were calculated based upon the rates being tested, the concentration of active ingredient or acid equivalent in the formulation, and a 12 mL application volume at a rate of 187 L/ha.
(§5) For treatments comprised of formulated compounds, measured amounts of compounds were placed individually in 25 mL glass vials and diluted in a volume of 1.25% (v/v) Agri-Dex® crop oil concentrated to obtain 12× stock solutions. […] Application solutions were prepared by adding an appropriate amount of each stock solution (e.g., 1 mL) and diluted to the appropriate final concentrations with the addition of 10 mL of an aqueous mixture of 1.25% (v/v) crop oil concentrate so that the final spray solutions contained 1.25+/−0.05% (v/v) crop oil concentrate.
(§6) For treatments comprised of technical compounds, weighed amounts can be placed individually in 25 mL glass vials and dissolved in a volume of 97:3 v/v acetone/DMSO to obtain 12× stock solutions. […] Application solutions can be prepared by adding an appropriate amount of each stock solution (e.g., 1 mL) and diluted to the appropriate final concentrations with the addition of 10 mL of an aqueous mixture of 1.5% (v/v) crop oil concentrate so that the final spray solutions contain 1.25% (v/v) crop oil concentrate. When technical materials are used, the concentrated stock solutions can be added to the spray solutions so that the final acetone and DMSO concentrations of the application solutions are 16.2% and 0.5%, respectively.
(§7) For treatments comprised of formulated and technical compounds, weighed amounts of the technical materials were placed individually in 25 mL glass vials and dissolved in a volume of 97:3 v/v acetone/DMSO to obtain 12× stock solutions, and measured amounts of the formulated compounds were placed individually in 25 mL glass vials and diluted in a volume of 1.5% (v/v) crop oil concentrate or water to obtain 12× stock solutions. […]

[2] = test system: CYPIR (Cyperus iria, rice flatsedge); format: in vivo, Cyperus iria L.
From the text: as §1, §2, §3, §4, §5, §6, §7

[3] = test system: BRAPP (Brachiaria platyphylla, broadleaf signalgrass); format: in vivo, Brachiaria platyphylla (Griseb.) Nash
From the text: as §1, §2, §3, §4, §5, §6, §7

[4] = test system: ECHCG (Echinochloa crusgalli, barnyardgrass); format: in vivo, Echinochloa crusgalli (L.) Beauv.
Procedure: as §1, with “When required to ensure good germination and healthy plants, a fungicide treatment and/or other chemical or physical treatment was applied.” left out
as §2, §3, §5, §6
For treatments comprised of formulated and technical compounds, weighed amounts of the technical materials were placed individually in 25 mL glass vials and dissolved in a volume of 97:3 v/v acetone/DMSO to obtain 12× stock solutions, and measured amounts of the formulated compounds were placed individually in 25 mL glass vials and diluted in a volume of 1.5% (v/v) crop oil concentrate or water to obtain 12× stock solutions. […] Application solutions were prepared by adding an appropriate amount of each stock solution (eg, 1 mL) and diluted to the appropriate final concentrations with the addition of an appropriate amount of an aqueous mixture of 1.5% (v/v) crop oil concentrate so that the final spray solutions contained 1.25% (v/v) crop oil concentrate.

CCNc1nc(Cl)nc(NC(C)C)n1 [Atrazine, 6-chloro-N-ethyl-N′-(1-methylethyl)-1,3,5-triazine-2,4-diamine, reference compound]
Visual Weed Control (%) Obs ([1]; 280 g ai/ha, 22 DAA): 10% | Visual Weed Control (%) Obs ([1]; 560 g ai/ha, 22 DAA): 10% | Visual Weed Control (%) Obs ([1]; 1120 g ai/ha, 22 DAA): 60% | Visual Weed Control (%) Obs ([2]; 280 g ai/ha, 22 DAA): 0% | Visual Weed Control (%) Obs ([2]; 560 g ai/ha, 22 DAA): 100% | Visual Weed Control (%) Obs ([2]; 1120 g ai/ha, 22 DAA): 80% | Visual Weed Control (%) Obs ([3]; 280 g ai/ha, 22 DAA): 0% | Visual Weed Control (%) Obs ([3]; 560 g ai/ha, 22 DAA): 0% | Visual Weed Control (%) Obs ([4]; 280 g ai/ha, 22 DAA): 0% | Visual Weed Control (%) Obs ([4]; 560 g ai/ha, 22 DAA): 20% | Visual Weed Control (%) Obs ([4]; 1120 g ai/ha, 22 DAA): 70%

COc1c(Cl)ccc(-c2nc(C(=O)O)c(Cl)c(N)c2F)c1F [Compound A Acid, 4-amino-3-chloro-6-(4-chloro-2-fluoro-3-methoxyphenyl)-5-fluoropyridine-2-carboxylic acid]
Visual Weed Control (%) Obs ([1]; 4.38 g ae/ha, 21 DAA): 43% | Visual Weed Control (%) Obs ([1]; 4.38 g ae/ha, 22 DAA): 20% | Visual Weed Control (%) Obs ([1]; 8.75 g ae/ha, 21 DAA): 63% | Visual Weed Control (%) Obs ([2]; 4.38 g ae/ha, 22 DAA): 15% | Visual Weed Control (%) Obs ([3]; 4.38 g ae/ha, 22 DAA): 45% | Visual Weed Control (%) Obs ([3]; 8.75 g ae/ha, 22 DAA): 70% | Visual Weed Control (%) Obs ([4]; 4.38 g ae/ha, 21 DAA): 33% | Visual Weed Control (%) Obs ([4]; 4.38 g ae/ha, 22 DAA): 20% | Visual Weed Control (%) Obs ([4]; 8.75 g ae/ha, 21 DAA): 55%

COc1c(Cl)ccc(-c2nc(C(=O)OCc3ccccc3)c(Cl)c(N)c2F)c1F [Compound A Benzyl Ester, benzyl ester of 4-amino-3-chloro-5-fluoro-6-(4-chloro-2-fluoro-3-methoxy-phenyl)pyridine-2-carboxylic acid]
Visual Weed Control (%) Obs ([1]; 4.38 g ae/ha, 21 DAA): 60% | Visual Weed Control (%) Obs ([1]; 8 g ae/ha, 20 DAA): 65% | Visual Weed Control (%) Obs ([1]; 8 g ae/ha, 21 DAA): 75% and 50% | Visual Weed Control (%) Obs ([1]; 8.75 g ae/ha, 21 DAA): 68% | Visual Weed Control (%) Obs ([1]; 16 g ae/ha, 20 DAA): 85% | Visual Weed Control (%) Obs ([1]; 16 g ae/ha, 21 DAA): 85% and 65% | Visual Weed Control (%) Obs ([1]; 17.5 g ae/ha, 21 DAA): 83% | Visual Weed Control (%) Obs ([1]; 32 g ae/ha, 20 DAA): 95% | Visual Weed Control (%) Obs ([1]; 32 g ae/ha, 21 DAA): 95% and 85% | Visual Weed Control (%) Obs ([2]; 8 g ae/ha, 20 DAA): 70% | Visual Weed Control (%) Obs ([2]; 8 g ae/ha, 22 DAA): 10% | Visual Weed Control (%) Obs ([2]; 16 g ae/ha, 20 DAA): 90% | Visual Weed Control (%) Obs ([2]; 16 g ae/ha, 22 DAA): 60% | Visual Weed Control (%) Obs ([2]; 32 g ae/ha, 20 DAA): 90% | Visual Weed Control (%) Obs ([3]; 4.38 g ae/ha, 22 DAA): 55% | Visual Weed Control (%) Obs ([3]; 8 g ae/ha, 20 DAA): 55% | Visual Weed Control (%) Obs ([3]; 8.75 g ae/ha, 22 DAA): 70% | Visual Weed Control (%) Obs ([3]; 16 g ae/ha, 20 DAA): 90% | Visual Weed Control (%) Obs ([3]; 17.5 g ae/ha, 22 DAA): 75% | Visual Weed Control (%) Obs ([3]; 32 g ae/ha, 20 DAA): 90% | Visual Weed Control (%) Obs ([4]; 4.38 g ae/ha, 21 DAA): 48% | Visual Weed Control (%) Obs ([4]; 8 g ae/ha, 20 DAA): 70% | Visual Weed Control (%) Obs ([4]; 8 g ae/ha, 21 DAA): 45% | Visual Weed Control (%) Obs ([4]; 8 g ae/ha, 22 DAA): 35% | Visual Weed Control (%) Obs ([4]; 8.75 g ae/ha, 21 DAA): 55% | Visual Weed Control (%) Obs ([4]; 16 g ae/ha, 20 DAA): 90% | Visual Weed Control (%) Obs ([4]; 16 g ae/ha, 21 DAA): 85% | Visual Weed Control (%) Obs ([4]; 16 g ae/ha, 22 DAA): 65% | Visual Weed Control (%) Obs ([4]; 17.5 g ae/ha, 21 DAA): 85% | Visual Weed Control (%) Obs ([4]; 32 g ae/ha, 20 DAA): 90% | Visual Weed Control (%) Obs ([4]; 32 g ae/ha, 21 DAA): 90% | Visual Weed Control (%) Obs ([4]; 32 g ae/ha, 22 DAA): 80%

CCC(=O)Nc1ccc(Cl)c(Cl)c1 [Propanil, N-(3,4-dichlorophenyl)propanamide, reference compound]
Visual Weed Control (%) Obs ([1]; 420 g ai/ha, 21 DAA): 10% | Visual Weed Control (%) Obs ([1]; 840 g ai/ha, 21 DAA): 25% | Visual Weed Control (%) Obs ([1]; 1680 g ai/ha, 21 DAA): 25% | Visual Weed Control (%) Obs ([4]; 420 g ai/ha, 21 DAA): 10% | Visual Weed Control (%) Obs ([4]; 840 g ai/ha, 21 DAA): 10% | Visual Weed Control (%) Obs ([4]; 1680 g ai/ha, 21 DAA): 40%

CCNc1nc(Cl)nc(NCC)n1 [Simazine, 6-chloro-N,N′-diethyl-1,3,5-triazine-2,4-diamine, reference compound]
Visual Weed Control (%) Obs ([1]; 560 g ai/ha, 20 DAA): 0% | Visual Weed Control (%) Obs ([1]; 1120 g ai/ha, 20 DAA): 0% | Visual Weed Control (%) Obs ([1]; 2240 g ai/ha, 20 DAA): 0% | Visual Weed Control (%) Obs ([2]; 560 g ai/ha, 20 DAA): 0% | Visual Weed Control (%) Obs ([2]; 1120 g ai/ha, 20 DAA): 0% | Visual Weed Control (%) Obs ([2]; 2240 g ai/ha, 20 DAA): 30% | Visual Weed Control (%) Obs ([3]; 560 g ai/ha, 20 DAA): 0% | Visual Weed Control (%) Obs ([3]; 1120 g ai/ha, 20 DAA): 0% | Visual Weed Control (%) Obs ([3]; 2240 g ai/ha, 20 DAA): 0% | Visual Weed Control (%) Obs ([4]; 560 g ai/ha, 20 DAA): 0% | Visual Weed Control (%) Obs ([4]; 1120 g ai/ha, 20 DAA): 0% | Visual Weed Control (%) Obs ([4]; 2240 g ai/ha, 20 DAA): 0%
